Source: patent US7863281B2, “Bicyclic heterocycles, pharmaceutical compositions containing these compounds, their use and processes for the preparation thereof” (Boehringer Ingelheim Pharma GmbH & Co. KG, priority 2002, dated 2011)

Each molecule was assayed against T1, human EGF-receptor kinase (Homo sapiens, UniProt P00533) (assay: Inhibition of human EGF-receptor kinase (ELISA, pEY substrate)). Conditions: cytoplasmic tyrosine kinase domain (Met664-Ala1186) as GST fusion protein; poly(EY)/bio-pEY substrate; 30 minutes at ambient temperature.
T1 construct: GST; made in house; host or cells: Sf9 insect cells (Baculovirus expression system)
T1 sequence (P00533 688-1210): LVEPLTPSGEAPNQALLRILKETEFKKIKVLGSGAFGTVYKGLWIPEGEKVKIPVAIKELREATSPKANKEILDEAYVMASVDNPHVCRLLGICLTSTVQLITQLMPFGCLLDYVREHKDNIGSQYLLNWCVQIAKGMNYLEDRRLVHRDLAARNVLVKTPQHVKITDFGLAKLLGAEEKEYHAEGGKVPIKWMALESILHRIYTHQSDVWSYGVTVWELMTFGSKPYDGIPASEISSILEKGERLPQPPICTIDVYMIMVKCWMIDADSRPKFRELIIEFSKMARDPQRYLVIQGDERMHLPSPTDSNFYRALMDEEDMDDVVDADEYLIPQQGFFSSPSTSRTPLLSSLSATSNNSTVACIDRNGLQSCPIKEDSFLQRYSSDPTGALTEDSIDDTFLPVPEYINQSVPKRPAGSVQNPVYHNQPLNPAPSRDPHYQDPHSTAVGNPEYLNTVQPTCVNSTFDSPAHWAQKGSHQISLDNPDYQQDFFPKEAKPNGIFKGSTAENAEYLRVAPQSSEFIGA
Assay type: biochemical
Experimental: The inhibition of human EGF-receptor kinase was determined using the cytoplasmic tyrosine kinase domain (methionine 664 to alanine 1186 based on the sequence published in Nature 309 (1984), 418). For this the protein was expressed in Sf9 insect cells as GST fusion protein using the Baculovirus expression system.
The enzyme activity was measured in the presence or absence of the test compounds in serial dilutions. The polymer pEY (4:1) obtained from SIGMA was used as the substrate. Biotinylated pEY (bio-pEY) was added as the tracer substrate. 100 μl of reaction solution contained 10 μl of the inhibitor in 50% DMSO, 20 μl of the substrate solution (200 mM HEPES pH 7.4, 50 mM magnesium acetate, 2.5 mg/ml poly(EY), 5 μg/ml bio-pEY) and 20 μl of enzyme preparation. The enzyme reaction was started by the addition of 50 μl of a 100 μM ATP solution in 10 mM of magnesium chloride. The dilution of the enzyme preparation was adjusted so that the incorporation of phosphate in the bio-pEY was linear in terms of time and quantity of enzyme. The enzyme preparation was diluted in 20 mM HEPES pH 7.4, 1 mM EDTA, 130 mM common salt, 0.05% Triton X-100, 1 mM DTT and 10% glycerol.
The enzyme assays were carried out at ambient temperature over a period of 30 minutes and ended by the addition of 50 μl of a stopping solution (250 mM EDTA in 20 mM HEPES pH 7.4). 100 μl were placed on a streptavidin-coated microtitre plate and incubated for 60 minutes at ambient temperature. Then the plate was washed with 200 μl of a wash solution (50 mM Tris, 0.05% Tween 20). After the addition of 100 μl of an HRPO-labelled anti-PY antibody (PY20H Anti-PTyr:HRP made by Transduction Laboratories, 250 ng/ml) the preparation was incubated for 60 minutes. Then the microtitre plate was washed three times with 200 μl of wash solution. The samples were then combined with 100 μl of a TMB-peroxidase solution (A:B=1:1, Kirkegaard Perry Laboratories). After 10 minutes the reaction was stopped. The extinction was measured at OD450nm with an ELISA reader. All the results were measured three times. […]

IC50	Compound
1.5 nM	O=C(/C=C/CN1C[C@@H]2C[C@H]1CO2)Nc1cc2c(Nc3ccc(F)c(Cl)c3)ncnc2cc1OCC1CC1 [Example 1, 4-[(3-chloro-4-fluoro-phenyl)amino]-6-{[4-((1S,4S)-2-oxa-5-aza-bicyclo[2.2.1]hept-5-yl)-1-oxo-2-buten-1-yl]amino}-7-cyclopropylmethoxy-quinazoline]
0.5 nM	O=C(/C=C/CN1C[C@H]2C[C@@H]1CO2)Nc1cc2c(Nc3ccc(F)c(Cl)c3)ncnc2cc1O[C@H]1CCOC1 [Example 2(2), 4-[(3-chloro-4-fluoro-phenyl)amino]-6-{[4-((1R,4R)-2-oxa-5-aza-bicyclo[2.2.1]hept-5-yl)-1-oxo-2-buten-1-yl]amino}-7-[(S)-(tetrahydrofuran-3-yl)oxy]-quinazoline]
2 nM	O=C(/C=C/CN1CC2CCC(C1)O2)Nc1cc2c(Nc3ccc(F)c(Cl)c3)ncnc2cc1O[C@H]1CCOC1 [Example 2(3), 4-[(3-chloro-4-fluoro-phenyl)amino]-6-{[4-(8-oxa-3-aza-bicyclo[3.2.1]oct-3-yl)-1-oxo-2-buten-1-yl]amino}-7-[(S)-(tetrahydrofuran-3-yl)oxy]-quinazoline]
